Biological target: T1, TRAP1 enzyme (Homo sapiens, UniProt Q12931)
T1 sequence (Q12931 60-704): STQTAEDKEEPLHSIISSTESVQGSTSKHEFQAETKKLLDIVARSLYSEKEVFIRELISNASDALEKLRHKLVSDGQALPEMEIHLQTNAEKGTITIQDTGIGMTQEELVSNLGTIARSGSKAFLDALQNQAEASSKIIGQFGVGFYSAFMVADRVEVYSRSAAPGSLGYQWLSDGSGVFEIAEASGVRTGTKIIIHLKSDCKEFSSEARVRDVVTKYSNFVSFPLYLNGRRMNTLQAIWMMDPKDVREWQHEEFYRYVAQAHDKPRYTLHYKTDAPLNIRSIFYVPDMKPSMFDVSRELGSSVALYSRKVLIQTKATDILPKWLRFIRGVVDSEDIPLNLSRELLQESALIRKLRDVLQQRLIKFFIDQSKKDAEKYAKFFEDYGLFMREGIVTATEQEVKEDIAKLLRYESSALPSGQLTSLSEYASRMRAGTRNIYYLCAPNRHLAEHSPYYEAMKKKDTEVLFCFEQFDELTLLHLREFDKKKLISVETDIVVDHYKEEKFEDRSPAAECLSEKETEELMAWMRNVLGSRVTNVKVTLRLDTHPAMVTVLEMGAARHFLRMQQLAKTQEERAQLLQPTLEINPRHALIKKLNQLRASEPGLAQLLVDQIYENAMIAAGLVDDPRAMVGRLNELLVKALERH
Experiment: Malachite green phosphate assay of TRAP1 ATPase activity
Assay type: biochemical
Conditions: for EC50: TRAP1 ATPase activation, 150 nM Trap1, 20 μM ATP, geometric mean, read-out: Malachite Green Fluor DRC: GeoMean EC50; for Emax: read-out: Malachite Green Fluor DRC: Mean Emax
Summary of the method: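 Compound (0.78 μM-100 μM) preincubated with 150 nM TRAP1 in 50 mM HEPES pH 7.5, 20 mM KCl, 4 mM MgCl2, 0.05% BSA, 30 min at 37 °C; reaction started with 20 μM ATP, 180 min at 37 °C. Phosphate quantified by malachite green against a standard curve; Emax and EC50 from sigmoidal fits of activation.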

Structure (SMILES)	EC50 [µM]	Emax [%]
COc1ccc(NC(=O)c2cnc(C(F)(F)F)[nH]2)cc1S(=O)(=O)N(CCCCCC[P+](c1ccccc1)(c1ccccc1)c1ccccc1)c1ccc(Br)cc1 [Compound 260]	< 10	160 to 199
COc1ccc(NC(=O)c2cnc(-c3ccccc3)[nH]2)cc1S(=O)(=O)Nc1ccc(Cl)cc1 [Compound 404]	< 10	160 to 199
CCc1ccc(NC(=O)c2cnc(C(F)(F)F)[nH]2)cc1S(=O)(=O)Nc1ccc(C)cc1 [Compound 270]	10 to 20	200 to 300
CCc1ccc(NC(=O)c2cnc(C(F)(F)F)[nH]2)cc1S(=O)(=O)Nc1ccc(Br)cc1 [Compound 216]	< 10	200 to 300
Cc1ccc2c(c1)CCN2S(=O)(=O)c1cccc(NC(=O)c2ocnc2C)c1 [Compound 407]	20 to 100	200 to 300
COc1ccc(NC(=O)c2oc(-c3ccccc3)nc2C)cc1S(=O)(=O)Nc1ccc(Cl)cc1 [Compound 488]	10 to 20	200 to 300
CCOC(=O)Cc1ccc(NC(=O)c2cnccc2C)cc1S(=O)(=O)Nc1ccc(C)cc1 [Compound 317]	10 to 20	160 to 199
O=C(Nc1cccc(S(=O)(=O)Nc2ccc(Br)cc2)c1)c1cnc(-c2ccccc2)[nH]1 [Compound 169]	10 to 20	200 to 300
COc1ccc(NC(=O)c2cnc(-c3ccccc3)o2)cc1S(=O)(=O)Nc1c(Cl)cccc1Cl [Compound 662]	10 to 20	160 to 199
COc1ccc(NC(=O)c2cnc[nH]2)cc1S(=O)(=O)Nc1ccc(C(C2N=N2)C(F)(F)F)cc1 (stereo not shown) [Compound 398]	20 to 100	123 to 159
COc1ccc(NC(=O)c2cnc(C(F)(F)F)[nH]2)cc1S(=O)(=O)N(CCCCN1CCCC1)c1ccc(Br)cc1 [Compound 437]	20 to 100	160 to 199
COc1ccc(NC(=O)c2cnccc2C)cc1S(=O)(=O)Nc1ccccc1C [Compound 64]	20 to 100	160 to 199
CN(c1ccc(Br)cc1)S(=O)(=O)c1cc(NC(=O)c2cnc[nH]2)ccc1OCCCCCCO [Compound 342]	20 to 100	200 to 300
CCOC(=O)Cc1ccc(NC(=O)c2ncco2)cc1S(=O)(=O)Nc1ccc(Br)cc1 [Compound 332]	20 to 100	200 to 300
COc1ccc(NC(=O)c2cnc(C(F)(F)F)[nH]2)cc1S(=O)(=O)N(CCCCN1CCOCC1)c1ccc(Br)cc1 [Compound 430, N-(3-(N-(4-bromophenyl)-N-(4-morpholinobutyl)sulfamoyl)-4-methoxyphenyl)-2-(trifluoromethyl)-1H-imidazole-5-carboxamide]	20 to 100	200 to 300
Cc1ncoc1C(=O)Nc1cccc(S(=O)(=O)N2CCOc3cc(Cl)ccc32)c1 [Compound 479]	10 to 20	160 to 199
COc1ccc(-c2ncc(C(=O)Nc3ccc(OC)c(S(=O)(=O)Nc4ccc(Br)cc4)c3)[nH]2)cc1 [Compound 417]	< 10	123 to 159
COc1ccc(NC(=O)c2cnc(C(F)(F)F)[nH]2)cc1S(=O)(=O)N(CCCCCC(=O)O)c1ccc(Br)cc1 [Compound 264]	10 to 20	160 to 199
COc1ccc(NC(=O)c2cnccc2C)cc1S(=O)(=O)Nc1ccc(C)cc1 [Compound 54]	20 to 100	160 to 199
COc1ccc(NC(=O)c2cnc(-c3ccccc3)o2)cc1S(=O)(=O)Nc1c(C)cccc1C [Compound 470]	< 10	200 to 300
O=C(Nc1cccc(S(=O)(=O)N2CCOc3cc(F)ccc32)c1)c1ncco1 [Compound 377]	20 to 100	160 to 199
COc1ccc(NC(=O)c2cnc(-c3ccccc3)[nH]2)cc1S(=O)(=O)N(CCOCCOCCN)c1ccc(Br)cc1 [Compound 637]	20 to 100	> 300
C=C(C)c1ncoc1C(=O)Nc1ccc(OC)c(S(=O)(=O)Nc2ccc(Cl)cc2)c1 [Compound 593]	20 to 100	200 to 300

— patent US20230174523A1, “BENZENESULFONAMIDE DERIVATIVES AS TRAP1 MODULATORS AND USES THEREOF” (Amathus Therapeutics, Inc., priority 2020, published 2023)
